Measurements taken from patent US6833373B1, “Method of using an integrin antagonist and one or more antineoplastic agents as a combination therapy in the treatment of neoplasia” (G.D. Searle & Co., priority 1998, dated 2004).

What was measured:
[1] = tested on: human U251 glioblastoma; assay: U251 glioblastoma model; assay type: in vivo, SCID mice; settings: for tumor growth (mean tumor volume with time): compound I7 10 mg/kg BID PO day 14-44, BCNU 12 mg/kg once a day on days 14, 18 and 22
Method: compound I7 was evaluated in the human U251 glioblastoma model. The tumors were implanted onto the flanks of SCID mice and the mean tumor volume with time was calculated. […] These clinically relevant measurements of antitumor efficacy establish the antitumor efficacy of compound I7, especially when combined with standard of care chemotherapeutic agents.

[2] = 15 mg/kg/day, biliary cirrhosis trials; cited from earlier work
[3] = tested on: lung tumors; assay: Implanted tumor cells, lung tumors in mice, compound I7 with or without cisplatin; assay type: in vivo; settings: compared to the control groups; lung tumors greater than 2,000 mm^3
Text: In an additional experiment, tumor cells were implanted into mice; lung tumors of volumes greater than 2,000 mm^3 were developed. The mice were then separated into four groups, including a control group and three treatment groups: compound I7 alone; compound I7 with cisplatin (a cytotoxic drug); or cisplatin alone. Compared to the control groups, the mice treated with combination compound I7/cisplatin therapy experienced more than an 80 percent reduction in tumor size. In comparison, the group receiving cisplatin alone experienced 50 percent reductions in tumor size and the compound I7 group experienced 20-30 percent reductions. These studies indicate that compound I7 has prominent anti-tumor activity.

[4] = tested on: Rice 500 rat Leydig testicular tumor; assay: Rice 500 rat Leydig testicular tumor model; assay type: in vivo, SCID mice; settings: for survival compared to vehicle treated controls: single agents, p<0.05
Method: The Rice 500 rat Leydig testicular tumor grows very quickly when implanted into the flank of SCID mice. […] Tumor growth was reduced by about 50% at the […] dose in this aggressive model. […] Similar to the results seen in the M21 tumor model, compound I7 increased the effects of cisplatin in the Leydig tumor model. […] In a similar experiment, the effects of compound I7, cisplatin and the combination were evaluated for potentiation of overall survival in the Leydig tumor mice. Survival was increased by either compound I7 or cisplatin alone when compared to vehicle treated controls (p<0.05). More importantly, the combination of the two agents almost doubled overall survival (from 17 to 29 days) (p<0.0l combination vs. cisplatin, p<0.001 combination vs. control). Thus, the ability of compound I7 to work alone or in combination therapy to prevent tumor growth clearly correlates with enhanced survival.

[5] = tested on: A2780 human ovarian carcinoma; assay: A2780 mouse model; assay type: in vivo, SCID mice; settings: compound I7 10 mg/kg BID PO; cisplatin 10 mg/kg ip once on day 20
Text: compound I7 prevents the growth of human ovarian carcinoma in SCID mice. […] Survival studies are now underway to characterize the survival benefit of combination therapy in this model.

[6] = tested on: Lewis Lung carcinoma (LLC); assay: Lewis Lung carcinoma (LLC) model; settings: for growth of the LLC tumor (primary tumor mass): compound I7 1 and 10 mg/kg BID PO from day 1, cisplatin single ip dose 10 mg/kg on day 5; for median survival time: compound I7 at 10 mg/kg
Method: Tumor cells for implantation were taken from cells either grown in tissue culture (Leydig, M21) or serially passaged as tumors in mice and prepared as tumor brei (LLC). […] Tumor volumes were measured at intervals over the course of the experiments. Tumors were measured with a vernier caliper and volumes were determined using the formula for the volume of a cylinder: tumor volume=width^2×length×0.52. […] On the final day of the experiment, tumors were dissected free and weighed. The data are expressed as the mean +/− SEM. Student's and Mann-Whitney tests were used to assess differences between means or medians using the InStat software package.

[7] = tested on: M21 human melanoma cells; assay: M21 human melanoma model; assay type: in vivo, SCID mice
Method: In the M21 model, M21 human melanoma cells implanted subcutaneously into SCID mice developed tumors which grew to approximately 400 mm^3 within 30 days. […] Cisplatin was administered once by ip injection (10 mg/kg) on day 14. […] The results of this dose sequencing experiment establish the efficacy of compound I7 in combination therapy with cisplatin when administered before, concurrent with, or after cisplatin dosing.

[8] = tested on: angiogenesis induced by bFGF or VEGF; assay: Corneal micropocket assay; assay type: in vivo, female C57BL6 mice; settings: BID
Text: In this model, an intrastromal pocket is surgically created in the normally avascular cornea of female C57BL6 mice 1 mm distance from the corneal-scleral junction. A slow release hydron polymer pellet containing an angiogenic growth factor (bFGF or VEGF) is inserted into the corneal pocket. The pocket is self sealing and antibiotic ointment is placed in the eye.

[9] = tested on: 435/GFP HAL-1 (MDA-MB-435 breast carcinoma) cells; assay: Metastasis model, 435/GFP HAL-1 orthotopic implantation; assay type: in vivo, SCID mice; settings: for reduction in lung metastatic burden: eight weeks
Text: Accurate quantitation of early-stage metastasis in animal models is typically hampered by the lack of sensitive and convenient assays to detect low numbers of tumor cells in a background of normal tissue. Quantitation of late-stage metastasis by counting of visible foci or comparison of organ weights requires substantial tumor burden which can take 3-4 months to develop in conventional models of breast cancer, and generally cannot detect subtle differences. […] The GFP-transfected cells are easily detected by flow cytometry, and fixation of the cells or the addition of antibodies or exogenous substrates is not required. A highly aggressive clone was isolated from the lung of a SCID mouse implanted in the mammary fat pad with several GFP-expressing clones. […] Eight weeks later, lungs were removed and weighed.

[10] = tested on: Cancer cells implanted subcutaneously; settings: large-volume tumors (>1,500 mm^3); dose dependent; cited from earlier work

## O=NN(CCCl)C(=O)NCCCl [BCNU, carmustine]
[1]
  tumor growth (mean tumor volume with time): regression of the tumors to the limit of detectability, but the tumors grew back
[1]; p<0.01
  duration of the response: 5 days

## C[C@H](CCC(=O)O)[C@H]1CC[C@H]2[C@@H]3[C@@H](O)C[C@@H]4C[C@H](O)CC[C@]4(C)[C@H]3CC[C@]12C [URSO, Ursodeoxycholate]
[2]
  tolerability: extremely well tolerated and without toxicity

## N.N.[Cl][Pt][Cl] [cisplatin, reference compound]
[3]
  reduction in tumor size: 50%
[4]
  survival compared to vehicle treated controls: increased
[5]
  tumor growth: decreasing tumor growth
[6]; cisplatin 10 mg/kg ip day 5, compound I7 10 mg/kg
  time to develop a tumor >500 mm^3: 22.4 days
[6]
  growth of the LLC tumor (primary tumor mass): significantly retarded the growth
[6]; cisplatin 10 mg/kg ip day 5
  median survival time: 33 days

## O=C(O)C[C@@H](NC(=O)CNC(=O)c1cc(O)cc(NC2=NCC(O)CN2)c1)c1cc(Cl)cc(Br)c1O (stereo partly drawn) [compound I7, (3R)-N-[3-hydroxy-5-[(1,4,5,6-tetrahydro-5-hydroxy-2-pyrimidinyl)amino]benzoyl]glycyl-3-(3-bromo-5-chloro-2-hydroxyphenyl)-b-alanine]
[3]
  reduction in tumor size: 20-30%
[7]; 10 mg/kg
  time to tumor volume >200 mm^3: 27 days
[7]; oral BID, at time of tumor implantation or beginning up to 21 days after
  growth of M21 tumors: dose-dependently retarded the growth
[4]; 2 mg/ml dose in drinking water
  tumor growth reduced: about 50%
[4]; compound I7 10 or 100 mg/kg BID PO from day 5, monotherapy or with cisplatin 10 mg/kg ip once day 5, p<0.01 vs control
  inhibition of tumor growth: Dose-related inhibition of tumor growth
[4]; in the drinking water at 0.02 to 2 mg/ml
  tumor growth: inhibited tumor growth dose-dependently
[4]
  survival compared to vehicle treated controls: increased
[1]
  tumor growth (mean tumor volume with time): little inhibition of tumor growth
[5]
  tumor growth: equally effective as cisplatin
[8]
  angiogenesis induced by either bFGF or VEGF: inhibited angiogenesis
[8]; maximal inhibitory activity at 10 mg/kg BID orally
  inhibition of the angiogenic response: up to 42%
[9]; 10 mg/kg BID orally
  reduction in lung metastatic burden: 55%
[9]; 30 mg/kg BID orally
  reduction in lung metastatic burden: 69%
[9]; 1, 10 and 30 mg/kg BID orally, visual counting or flow cytometry
  spontaneous metastasis of 435 breast carcinoma cells to the lungs: dose-dependently reduced
[9]; mouse, in vivo
  growth of the primary tumor mass: did not delay the growth
  histological examination of lung sections: dramatic reduction in the number of large macroscopic metastases and an increase in the presence of microscopic foci of metastases
[10]
  reduced tumor growth: ≤ 85%
[6]
  growth of the LLC tumor (primary tumor mass): did not affect the growth
[6]; cisplatin 10 mg/kg ip day 5
  median survival time: 33 days
